Here are results for two compounds from patent US8703744B2, “Cholesterol level lowering liposomes” (priority 2009, dated 2014).

The test system of the experiment is Huh7.5 cells. Put plainly: Uptake of rh-PE-labeled 22:6 ER liposomes into Huh7.5 cells in the presence of drugs that up- and down-regulate LDLr expression. In kind it is cell-based, human. The note with it: 10 μM, 24 h pre-treatment, then 50 μM rhodamine-labeled 22:6 ER liposomes for 24 h. As to the method:
Liposomes were prepared as described in US patent publication no. 20090252785 and included 1% (total moles) of rh-PE for monitoring their uptake in cells. JC-1-infected (MOI=0.5) or uninfected Huh7.5 cells were seeded in 6 well plates at a density of 3×10^5 cell/well in 2 ml of complete DMEM/10% FCS medium. Cells were either pre-treated or not with 1 μM and 10 μM squalestatin (SQ, Sigma) or 25-hydroxycholesterol (25-HC, Sigma) for 24 h in serum-free complete DMEM. Following the 24 h pre-incubation, rh-labeled liposomes were added to a final lipid concentration of 50 μM, and left to incubate for a further 24 h. Following incubation times, cells were washed twice in 1×PBS, detached, counted, and resuspended in 200 μl 1×PBS/1% Triton® X-100 before being transferred to a 96 well plate to read in a spectrofluorometer at λex=550 nm, Xem=590 nm.
22:6 ER liposomes (final lipid concentration of 50 μM), labeled with 1% rh-PE in the lipid bilayer, were then added to cells and left to incubate a further 24 h. Cells were then harvested, counted, and rh-PE fluorescence was measured at λex=550 nm, Xem=590 nm. All data represent the mean and SD of triplicates from three independent experiments. Data are presented in relation to the untreated control (100%), and significant differences from this value are denoted with * (P<0.05) or ** (P<0.001).

Regarding `C[C@H](CCCC(C)(C)O)[C@H]1CC[C@H]2[C@@H]3CC=C4C[C@@H](O)CC[C@]4(C)[C@H]3CC[C@]12C` [25-HC, 25-hydroxycholesterol], the “decrease in liposome uptake” value was 69%. As for `C=C(CC[C@]12O[C@H](C(=O)O)[C@@](O)(C(=O)O)[C@](C(=O)O)(O1)[C@H](OC(=O)/C=C/[C@@H](C)C[C@@H](C)CC)[C@H]2O)[C@@H](OC(C)=O)[C@H](C)Cc1ccccc1` [SQ, squalestatin], the “liposome uptake, in relation to the untreated control (100%)” value came out at 117%.
